Measured values published in patent US20110159019A1, “2,4-DIAMINOPYRIMIDINE COMPOUND” (priority 2008, published 2011).
Like-named read-outs stand apart in the source and are kept apart here.

Columns and labels:
Cytochrome P450 (CYP3A4) = target: T1, Cytochrome P450 (CYP3A4) (Homo sapiens, UniProt P08684); test: Measurement of cytochrome P450 (CYP3A4) enzyme inhibition activity in human liver microsome (inhibition tests I and II, midazolam substrate); format: in vitro ADME; settings: for I (%) Remaining Rate I: inhibition test I: 5 μM test compound, 2 μM midazolam, human liver microsome, 37° C. 20 minutes, no preincubation; for II (%) Remaining Rate II: inhibition test II: 5 μM test compound preincubated 30 minutes with human liver microsome and NADPH, then 2 μM midazolam 20 minutes, relative to test I
T1 construct: human liver microsome (0.1 mg protein/mL); from tissue; host or cells: human liver microsomes
Procedure: Test Method 3: Measurement of Cytochrome P450 (CYP3A4) Enzyme Inhibition Activity i) Inhibition Test I (Calculation of Remaining Rate I)
Using a 96-well plate, 2 μM of a substrate (midazolam), 5 μM of a test compound, and human liver microsome (0.1 mg protein/mL) were incubated at 37° C. for 20 minutes in a total amount of 150 μL of a 100 mM phosphate buffer (pH 7.4) containing 0.1 mM EDTA and 1 mM NADPH. Then, the reaction was stopped by adding 130 μl of an aqueous solution containing 80% acetonitrile. Thereafter, the samples were analyzed by LC/MS/MS, and the remaining rates I were calculated using the following equation 1.
Remaining Rate I(%)=Ai,I/Ao,I×100 (Equation 1)
Ai, I=Amount of produced metabolite after reaction in the presence of the test compound in the inhibition test I Ao, I=Amount of produced metabolite after reaction in the absence of the test compound in the inhibition test I ii) Inhibition Test II (Calculation of Remaining Rate II)
Using a 96-well plate, 5 μM of a test compound and human liver microsome (0.1 mg protein/mL) were incubated at 37° C. for 30 minutes in a total amount of 145 μL of a 100 mM phosphate buffer (pH=7.4) containing 0.1 mM EDTA and 1 mM NADPH. Then, 2 μM of midazolam as the substrate was added thereto at a total amount of 150 μL of and incubated at 37° C. for 20 minutes. After the incubation, the reaction was stopped by adding 130 μL of an aqueous solution containing 80% acetonitrile. Thereafter, the samples were analyzed by LC/MS/MS, and the remaining rate II was calculated using the following equation 2.
Remaining Rate II(%)=Ai,II/Ao,II/(Ai,I/Ao,I)×100 (Equation 2)
Ai, II=Amount of produced metabolite after reaction in the presence of the test compound in the inhibition test II […]=Amount of produced metabolite after reaction in the absence of the test compound in the inhibition test II […]
Ex represents No. of the Example Compounds as described below.

Full-length human PKCθ = target: T2, Full-length human PKCθ (Homo sapiens, UniProt Q04759); test: Measurement of human PKCθ enzyme inhibition activity (HTRF KinEASE S1 kit); format: biochemical
T2 construct: Full-length human PKCθ (Carna Biosciences, final 31 ng/mL); purchased Carna Biosciences
Procedure: Test Method 1: Measurement of Human PKCθ Enzyme Inhibition Activity
The test was carried out using a HTRF® KinEASE™ S1 kit (CIS bio). […] Then, 3 μL of an ATP liquid (final 30 μM) was dispensed therein to carry out an enzyme reaction at room temperature for 1 hour.
Ex represents Compound No. of Examples as described later.

[1] = full-length human PKCθ, ATP 30 μM, HTRF, read-out: IC50 (nM), human PKCθ enzyme inhibition

T2 sequence (Q04759 whole entry): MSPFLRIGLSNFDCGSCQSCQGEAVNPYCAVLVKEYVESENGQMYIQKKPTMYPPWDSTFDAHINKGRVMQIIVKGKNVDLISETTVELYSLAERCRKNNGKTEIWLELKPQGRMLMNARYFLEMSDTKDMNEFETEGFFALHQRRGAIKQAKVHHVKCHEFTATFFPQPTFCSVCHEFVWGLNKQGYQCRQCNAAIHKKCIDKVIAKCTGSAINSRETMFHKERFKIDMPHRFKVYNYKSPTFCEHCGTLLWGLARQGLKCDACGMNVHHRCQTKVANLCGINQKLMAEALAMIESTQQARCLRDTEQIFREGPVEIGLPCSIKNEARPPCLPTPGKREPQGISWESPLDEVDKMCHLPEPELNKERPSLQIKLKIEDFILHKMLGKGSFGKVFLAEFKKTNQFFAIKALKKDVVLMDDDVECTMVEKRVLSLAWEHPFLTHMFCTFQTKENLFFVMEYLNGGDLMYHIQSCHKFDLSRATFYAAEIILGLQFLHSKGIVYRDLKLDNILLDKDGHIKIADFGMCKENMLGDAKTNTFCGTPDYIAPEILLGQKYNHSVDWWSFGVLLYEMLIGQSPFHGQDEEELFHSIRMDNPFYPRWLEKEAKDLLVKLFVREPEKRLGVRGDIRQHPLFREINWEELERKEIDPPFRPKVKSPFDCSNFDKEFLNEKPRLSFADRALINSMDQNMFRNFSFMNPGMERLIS
T1 sequence (P08684 whole entry): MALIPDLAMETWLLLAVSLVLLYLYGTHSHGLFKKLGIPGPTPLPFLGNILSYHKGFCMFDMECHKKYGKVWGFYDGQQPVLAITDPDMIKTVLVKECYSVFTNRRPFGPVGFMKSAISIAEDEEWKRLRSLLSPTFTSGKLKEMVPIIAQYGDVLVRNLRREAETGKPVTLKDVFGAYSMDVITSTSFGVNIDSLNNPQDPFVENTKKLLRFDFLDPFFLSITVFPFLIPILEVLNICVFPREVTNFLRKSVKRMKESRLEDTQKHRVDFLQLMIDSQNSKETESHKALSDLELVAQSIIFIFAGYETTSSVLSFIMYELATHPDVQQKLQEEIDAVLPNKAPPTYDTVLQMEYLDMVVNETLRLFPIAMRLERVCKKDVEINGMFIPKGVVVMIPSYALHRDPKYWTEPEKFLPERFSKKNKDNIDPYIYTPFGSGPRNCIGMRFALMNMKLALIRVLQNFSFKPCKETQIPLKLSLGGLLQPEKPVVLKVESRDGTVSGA

SMILES | I (%) Remaining Rate I (Cytochrome P450 (CYP3A4)) [%] | II (%) Remaining Rate II (Cytochrome P450 (CYP3A4)) [%] | IC50 (Full-length human PKCθ; [1]) [nM] | IC50 (Full-length human PKCθ) [nM]
N#Cc1cnc(NCc2ccccc2OC(F)(F)F)nc1NC[C@]12CC3C[C@H](C1)[C@H](N[C@H]1CC[C@H](O)CC1)[C@@H](C3)C2 (relative stereo) [Example 41, rel-4-[({(1R,3S,4R,5R)-4-[(trans-4-hydroxycyclohexyl)amino]adamantan-1-yl}methyl)amino]-2-{[2-(trifluoromethoxy)benzyl]amino}pyrimidine-5-carbonitrile] | 80 | 102 | 14 | 
CSc1ccccc1CNc1ncc(C#N)c(NC[C@]23CC4C[C@H](C2)[C@@H](N[C@H]2CC[C@H](O)CC2)[C@@H](C4)C3)n1 (relative stereo) [Example 43, rel-4-[({(1R,3S,4R,5R)-4-[(trans-4-hydroxycyclohexyl)amino]adamantan-1-yl]methyl)amino}-2-{[2-(methylsulfanyl)benzyl]amino}pyrimidine-5-carbonitrile] | 76 | 99 | 0.44 | 
COc1ccccc1CNc1ncc(C#N)c(NC[C@]23CC4C[C@H](C2)[C@@H](NCC[C@H](O)CO)[C@@H](C4)C3)n1 (relative stereo) [Example 195] | 88 | 82 | 3.3 | 
COc1ccccc1CNc1ncc(C#N)c(NC[C@]23CC4C[C@H](C2)[C@@H](N2CC(CO)(CO)C2)[C@@H](C4)C3)n1 (relative stereo) [Example 196] | 86 | 87 | 3.9 | 
CSc1ccccc1CNc1ncc(C#N)c(NC[C@]23CC4C[C@H](C2)[C@@H](NCC[C@H](O)CO)[C@@H](C4)C3)n1 (relative stereo) [Example 200] | 95 | 85 | 0.28 | 
N#Cc1cnc(NCc2ccccc2Cl)nc1NC[C@]12CC3C[C@H](C1)[C@@H](NC[C@H]1CC[C@H](O)CC1)[C@@H](C3)C2 (relative stereo) [Example 340] | 91 | 83 | 1.4 | 
CSc1ncccc1CNc1ncc(C#N)c(NC[C@]23CC4C[C@H](C2)[C@@H](NC[C@H]2CC[C@H](O)CC2)[C@@H](C4)C3)n1 (relative stereo) [Example 344] | 89 | 84 | 0.48 | 
C[C@]1(O)CC[C@H](CN[C@@H]2[C@@H]3CC4C[C@H]2C[C@@](CNc2nc(NCc5ccccc5OC(F)F)ncc2C#N)(C4)C3)CC1 (relative stereo) [Example 372] | 78 | 84 | 1.22 | 
N#Cc1cnc(NCc2ccccc2Cl)nc1NC[C@]12CC3C[C@H](C1)[C@@H](NC[C@H]1CC[C@@H](O)CC1)[C@@H](C3)C2 (relative stereo) [Example 401] | 84 | 89 | 0.65 | 
COc1ccccc1CNc1ncc(C#N)c(NC[C@]23CC4C[C@H](C2)[C@@H](N(C)CCCCO)[C@@H](C4)C3)n1 [Example 107] | 77 | 84 | 5.4 | 
CN([C@H]1CC[C@H](O)CC1)[C@@H]1[C@@H]2CC3C[C@H]1C[C@@](CNc1nc(NCc4ccccc4OC(F)(F)F)ncc1C#N)(C3)C2 [Example 115] | 75 | 90 | 3.5 | 
N#Cc1cnc(NCc2ccccc2Cl)nc1NC[C@]12CC3C[C@H](C1)[C@@H](NC1CCNCC1)[C@@H](C3)C2 [Example 169] | 83 | 89 | 0.36 | 
N#Cc1cnc(NCc2ccccc2Cl)nc1NC[C@]12CC3C[C@H](C1)[C@@H](NCC1CCN(CCF)CC1)[C@@H](C3)C2 [Example 219] | 76 | 94 |  | 0.4
N#Cc1cnc(NCc2ccccc2OC(F)(F)F)nc1NC[C@]12CC3C[C@H](C1)[C@@H](N[C@H]1CC[C@@H](N)CC1)[C@@H](C3)C2 [Example 303] | 75 | 88 | 0.065 | 
N#Cc1cnc(NCc2ccccc2Cl)nc1NC[C@]12CC3C[C@H](C1)[C@@H](NCC1CCNCC1)[C@@H](C3)C2 [Example 321] | 90 | 92 | 0.25 | 
